Results from publication PMC10674866, “Electrosprayed Nanoparticles Containing Mangiferin-Rich Extract from Mango Leaves for Cosmeceutical Application” (Nanomaterials, 2023).
≈ marks a conversion by molar mass, not a printed value.

Columns and labels:
Type in all cases: biochemical
tyrosinase from mushroom = target: T1, tyrosinase from mushroom; assay: absorbance at […] nm; settings: L-tyrosine substrate; 20 mM phosphate pH 6.8; room temperature
T1 construct: gene PPO1

[1] = target: T2, collagenase from Histidium histolyticum; assay: fluorescence assay of collagen hydrolysis ([…],4-DHPAA / periodate); settings: collagen substrate; borate buffer pH 7.5; 5 mM CaCl2; 37 °C
T2 construct: gene colG

[2] = target: T3, hyaluronidase from bovine (Bos taurus, UniProt Q2YDK3); assay: turbidity with acidic albumin, absorbance at […] nm; settings: read-out: % inhibition at 40.0 μg/mL
T3 construct: gene SPAM1; commercial native enzyme (Sigma-Aldrich)
T3 sequence (Q2YDK3 36-553): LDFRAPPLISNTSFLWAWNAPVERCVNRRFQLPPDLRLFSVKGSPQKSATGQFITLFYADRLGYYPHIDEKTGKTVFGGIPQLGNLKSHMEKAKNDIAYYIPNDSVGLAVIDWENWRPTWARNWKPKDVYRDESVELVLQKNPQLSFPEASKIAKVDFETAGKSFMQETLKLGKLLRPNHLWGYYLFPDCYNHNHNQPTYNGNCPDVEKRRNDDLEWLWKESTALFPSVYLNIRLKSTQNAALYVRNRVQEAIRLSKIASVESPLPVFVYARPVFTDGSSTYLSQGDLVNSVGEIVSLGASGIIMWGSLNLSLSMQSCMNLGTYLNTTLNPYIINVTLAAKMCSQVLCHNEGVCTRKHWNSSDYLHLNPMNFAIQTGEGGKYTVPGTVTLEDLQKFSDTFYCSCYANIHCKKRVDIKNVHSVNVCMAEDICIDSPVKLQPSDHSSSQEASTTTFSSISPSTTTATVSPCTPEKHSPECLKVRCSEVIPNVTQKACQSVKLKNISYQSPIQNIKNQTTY

Structure (SMILES) | IC50 (tyrosinase from mushroom) [µg/mL] | IC50 [1] [µg/mL] | inhibition at 40 µg/mL [2] [%]
O=C1O[C@H]([C@@H](O)CO)C(O)=C1O [ascorbic acid] | 69.8 ± 0.018 (≈ 396 µM) | 107.84 ± 0.001 (≈ 612 µM) | 
O=c1c2cc(O)c(O)cc2oc2cc(O)c([C@@H]3O[C@H](CO)[C@@H](O)[C@H](O)[C@H]3O)c(O)c12 [mangiferin] |  | 30.06 ± 0.001 (≈ 71.2 µM) | 1.72 ± 1.13
